Test results published in patent publication US20250368651A1 (priority 2022, published 2025).

How the values were obtained:
[1] = tested on: dsDNA formed by annealing Seq6 and its reverse complement, Seq6_RC; assay: ITC, dsDNA (annealed Seq6 and Seq6_RC); assay type: binding; conditions: dsDNA of Seq6 and Seq6_RC
Protocol: The figures are representation of three independent experiments.
Isothermal calorimetric titrations were carried out on a Malvern Analytical MicroCal PEAQ-ITC at 25° C. The DNA (see above for the calibration procedure) and the SMN-C2 water solutions containing the desired amount of the materials were freeze-dried overnight (Labconco FreeZone 4.5 Liter Benchtop Freeze Dry System) and then re-suspended in appropriate volume of buffer containing 5% DMSO, 100 mM NaCl and 30 mM MES buffer at pH 6.0 (e.g., 350 μL for DNA Seq6, 80 μL for SMN-C2). […] The analysis was performed using the instrument's MicroCal PEAQ-ITC Analysis Software (Malvern Analytical). The ITC data was fit using the One Set of Sites mode to calculate the dissociate constant (Kd), binding stoichiometry, and the changes in enthalpy and Gibbs free energy. In differential power (DP) trace, the baseline was subtracted for better visualization, which has no impact on calculations.

DNA S7 […] = assay: FP binding assay, 18-nt DNA S7
Protocol: (§1) All synthetic DNA and RNA oligomers were purchased from Integrated DNA Technologies and reconstituted in nuclease-free water (Invitrogen #AM9932) at 1 mM. The concentration of the oligonucleotides at ˜0.1 mM was calibrated with the A260 value measured by a NanoDrop ND-1000 (Thermo, Waltham, MA, USA) and the predicted extinction coefficient (http://www.oligoevaluator.com) using Lamber-Beer's Law. The risdiplam analogues (1 mM in DMSO) were diluted in 2× assay buffer (40 mM HEPES, 200 mM NaCl for RNA; 40 mM HEPES, 200 mM NaCl, 1 mM MgCl2 for DNA) to make a 1 μM 2× working solution.
(§2) A 1:2 dilution series (8 points) of each oligonucleotide was prepared in 20-30 μL water to desired concentrations (i.e., 1-128 μM). […] For fluorescence polarization measurement, 20 μL of the above 1× working solution was transferred into a 384-well, black, F-bottom microplates (Greiner Bio-One) in duplicates or triplicates. The plate was equilibrated at room temperature for 5 min before being read using a microplate reader (SYNERGY H1, BioTek; Excitation/Emission=360/460 nm) at 25° C. […] The mixture was then transferred into a microplate (20 μL each well) in duplicates for fluorescence polarization readout. The experimental data were analyzed using Prism 8 software (Graphpad Software, San Diego, CA, USA).

[2] = target: DNA Seq10 (UAAAGGAAGGU as deoxyribonucleotides); assay: FP binding assay, DNA Seq10; conditions: Seq 10; 0.5 μM SMN-C2
Protocol: as §1, §2

DNA S8 […] = assay: FP binding assay, 18-nt DNA S8
Protocol: as §1, §2

DNA S3 […] = assay: FP binding assay, 18-nt DNA S3
Protocol: as §1, §2

DNA S9 […] = assay: FP binding assay, 18-nt DNA S9
Protocol: as §1, §2

[3] = target: DNA Seq6 (UGAAGGAAGGU as deoxyribonucleotides); assay: FP binding assay, DNA Seq6
Protocol: as §1
A 1:2 dilution series (8 points) of each oligonucleotide was prepared in 20-30 μL water to desired concentrations (i.e., 1-128 μM). 20-30 μL 2× working solution containing the 2× assay buffer and the small-molecule ligand was added to each oligonucleotide sample in 1:1 (v/v) and mixed by pipetting for 4 times. For fluorescence polarization measurement, 20 μL of the above 1× working solution was transferred into a 384-well, black, F-bottom microplates (Greiner Bio-One) in duplicates or triplicates. The plate was equilibrated at room temperature for 5 min before being read using a microplate reader (SYNERGY H1, BioTek; Excitation/Emission=360/460 nm) at 25° C. For compound SMN-C5, a competitive binding assay was employed to measure an apparent Kd. SMN-C5 was 1:2 serial diluted for 10 concentration points starting at 750 μM in DMSO. A mixture of SMN-C2 (0.5 μM) and DNA Seq6 (25 μM) in 1× assay buffer was prepared and incubated at room temperature for 10 minutes. 3 μL of SMN-C5 solution at each concentration was added to a 42 μL SMN-C2/DNA Seq6 mixture and incubated at room temperature for 10 minutes. The mixture was then transferred into a microplate (20 μL each well) in duplicates for fluorescence polarization readout. The experimental data were analyzed using Prism 8 software (Graphpad Software, San Diego, CA, USA).

DNA S2 […] = assay: FP binding assay, 18-nt DNA S2
Protocol: as §1, §2

in vitro [4] = conditions: human
DNA Seq14 AGAAGGTAGGT = assay: FP binding assay, DNA Seq14; conditions: Seq 14 AGAAGGTAGGT; 0.5 μM SMN-C2
Protocol: as §1, §2

DNA S22 […] = assay: FP binding assay, 18-nt DNA S22
Protocol: as §1, §2

DNA Seq17 TGAAGGAAGAT = assay: FP binding assay, DNA Seq17; conditions: Seq 17 TGAAGGAAGAT; 0.5 μM SMN-C2
Protocol: as §1, §2

DNA S17 […] = assay: FP binding assay, 18-nt DNA S17
Protocol: as §1, §2

DNA S24 […] = assay: FP binding assay, 18-nt DNA S24
Protocol: as §1, §2

in vitro [5] = conditions: human; remark: listed apart in the source
DNA S11 […] = assay: FP binding assay, 18-nt DNA S11
Protocol: as §1, §2

DNA S6 […] = assay: FP binding assay, 18-nt DNA S6
Protocol: as §1, §2

DNA S1 […] = assay: FP binding assay, 18-nt DNA S1; conditions: range = 95% CI
Protocol: as §1, §2

DNA S12 […] = assay: FP binding assay, 18-nt DNA S12
Protocol: as §1, §2

[6] = target: DNA Seq13 (UGAAGAAAGGU as deoxyribonucleotides); assay: FP binding assay, DNA Seq13; conditions: Seq 13; 0.5 μM SMN-C2
Protocol: as §1, §2

[7] = tested on: SMN2 exon 7 minigenes with single-point mutations M1 and M2; assay: SMN2 splicing assay with minigenes mutated in the GA-rich sequence (M1, M2) in 293T cells; assay type: cell-based, human
[8] = target: DNA Seq7 (UUAAGGAAGGU as deoxyribonucleotides); assay: FP binding assay, DNA Seq7; conditions: Seq 7; 0.5 μM SMN-C2
Protocol: as §1, §2

DNA S27 d([…]) = assay: FP binding assay, 10-nt DNA S27
Protocol: as §1, §2

in vitro [9] = conditions: human; remark: listed apart in the source

**Q.** For `CCN1CCN(c2ccc3cc(-c4cn5cc(C)nc(C)c5n4)c(=O)oc3c2)C[C@@H]1C` [SMN-C2, (S)-3-(6,8-dimethylimidazo[1,2-a]pyrazin-2-yl)-7-(4-ethyl-3-methylpiperazin-1-yl)-2H-chromen-2-one], which “binding to dsDNA (ITC)” value [1] is on record?
**A.** abrogated most of the binding affinity

**Q.** What about the Kd (DNA S7 […]) of the same compound?
**A.** 17.3 ± 1.7 µM

**Q.** And the Kd [2]?
**A.** > 100 µM

**Q.** And the Kd (DNA S8 […])?
**A.** 12.4 ± 0.4 µM

**Q.** And the Kd (DNA S3 […])?
**A.** 21.7 ± 2.7 µM

**Q.** And the Kd (DNA S9 […])?
**A.** 56.2 ± 13.9 µM

**Q.** And the Kd ([3]; Seq 6, 0.5 μM SMN-C2, range = 95% CI, read-out: DNA Kd)?
**A.** 3.1 ± 0.7 µM

**Q.** And the “decrease in binding affinity by any single-point mutation of the core sequence” value ([3]; Seq10-17 vs Seq6)?
**A.** ≥ 5 fold

**Q.** What about the Kd (DNA S2 […]) of the same compound?
**A.** 20.2 ± 1.7 µM

**Q.** And the CC50 (in vitro [4])?
**A.** > 30 µM

**Q.** And the Kd (DNA Seq14 AGAAGGTAGGT)?
**A.** > 100 µM

**Q.** And the Kd (DNA S22 […])?
**A.** 44.7 ± 7.2 µM

**Q.** And the Kd (DNA Seq17 TGAAGGAAGAT)?
**A.** 56.4 ± 10.4 µM

**Q.** What about the Kd (DNA S17 […]) of the same compound?
**A.** 16.5 ± 1.1 µM

**Q.** What about the Kd (DNA S24 […]) of the same compound?
**A.** 36.8 ± 11.4 µM

**Q.** And the CC50 (in vitro [5])?
**A.** > 30 µM

**Q.** What about the Kd (DNA S11 […]) of the same compound?
**A.** 26.3 ± 1.2 µM

**Q.** What about the Kd (DNA S6 […]) of the same compound?
**A.** 33.3 ± 2.3 µM

**Q.** What about the Kd (DNA S1 […]) of the same compound?
**A.** 15.3 ± 0.6 µM

**Q.** What about the Kd (DNA S12 […]) of the same compound?
**A.** 37.4 ± 6.7 µM

**Q.** And the Kd [6]?
**A.** > 100 µM

**Q.** And the “exon 7 inclusion” value ([7]; 1 μM, 293T cells transfected with mutated minigenes M1, M2)?
**A.** > 90%

**Q.** And the “EC50 relative to minigene with wildtype exon 7 sequence, fold higher” value ([7]; mutated minigenes M1, M2 in 293T cells)?
**A.** 2-3 fold

**Q.** What about the Kd [8] of the same compound?
**A.** > 100 µM

**Q.** What about the Kd (DNA S27 d([…])) of the same compound?
**A.** 11.6 ± 1.7 µM

**Q.** What about the CC50 (in vitro [9]) of the same compound?
**A.** > 30 µM
